Tests used:
Test in all cases: Post-emergence test experiment (greenhouse pot, spray at 2-3 leaf stage)
Format in all cases: in vivo
Details in all cases: 1000 g/ha; post-emergence spray at 2-3 leaf stage; assessed after 3 weeks; fresh weight inhibition rate
[1] = tested on: Abutilon theophrasti
Summary of the method: (§1)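 Activity graded levels 0-5 by fresh-weight inhibition (level 5 above 85%, level 0 below 5%), assessed 3 weeks after treatment. Plants grown in greenhouse pots were sprayed post-emergence at 2-3 leaves using acetone/tween-80 solutions with methyl oleate synergist (1.5 L/ha).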

[2] = tested on: Digitaria sanguinalis
Summary of the method: as §1

[3] = tested on: Echinochloa crusgalli
Summary of the method: as §1

[4] = tested on: Galium spurium
Summary of the method: as §1

[5] = tested on: Monochoria vaginalis
Summary of the method: as §1

Row | Compound | Activity level (growth inhibition rate) Abutilon theophrasti [1] | Activity level (growth inhibition rate) Digitaria sanguinalis [2] | Activity level (growth inhibition rate) Echinochloa crusgalli [3] | Activity level (growth inhibition rate) Galium spurium [4] | Activity level (growth inhibition rate) Monochoria Vaginalis [5]
1 | CC(Oc1nc(F)c(Cl)c(N)c1Cl)C(=O)OCc1ccc(C2CC2Cl)cc1 (centres unmarked) [Compound 102] | 5 (Level 5: the growth inhibition rate is greater than 85%) | 5 (Level 5: the growth inhibition rate is greater than 85%) | 5 (Level 5: the growth inhibition rate is greater than 85%) | 5 (Level 5: the growth inhibition rate is greater than 85%) | 5 (Level 5: the growth inhibition rate is greater than 85%)
2 | CCC(=O)Cc1ccc(CSC(=O)C(C)Oc2nc(F)c(Cl)c(N)c2Cl)cc1 (centres unmarked) [Compound 103] | 5 (Level 5: the growth inhibition rate is greater than 85%) | 5 (Level 5: the growth inhibition rate is greater than 85%) | 5 (Level 5: the growth inhibition rate is greater than 85%) | 5 (Level 5: the growth inhibition rate is greater than 85%) | 5 (Level 5: the growth inhibition rate is greater than 85%)
3 | CC(=O)c1ccc(CCSC(=O)C(C)Oc2nc(F)c(Cl)c(N)c2Cl)cc1 (centres unmarked) [Compound 104] | 5 (Level 5: the growth inhibition rate is greater than 85%) | 5 (Level 5: the growth inhibition rate is greater than 85%) | 5 (Level 5: the growth inhibition rate is greater than 85%) | 5 (Level 5: the growth inhibition rate is greater than 85%) | 5 (Level 5: the growth inhibition rate is greater than 85%)
4 | CC(Oc1nc(F)c(Cl)c(N)c1Cl)C(=O)OCc1ccc(S(C)(=O)=O)cc1 (centres unmarked) [Compound 105] | 5 (Level 5: the growth inhibition rate is greater than 85%) | 5 (Level 5: the growth inhibition rate is greater than 85%) | 5 (Level 5: the growth inhibition rate is greater than 85%) | 5 (Level 5: the growth inhibition rate is greater than 85%) | 5 (Level 5: the growth inhibition rate is greater than 85%)
5 | COC(=O)Nc1cccc(CCOC(=O)C(C)Oc2nc(F)c(Cl)c(N)c2Cl)c1 (centres unmarked) [Compound 107] | 5 (Level 5: the growth inhibition rate is greater than 85%) | 5 (Level 5: the growth inhibition rate is greater than 85%) | 5 (Level 5: the growth inhibition rate is greater than 85%) | 5 (Level 5: the growth inhibition rate is greater than 85%) | 5 (Level 5: the growth inhibition rate is greater than 85%)
6 | CC(Oc1nc(F)c(Cl)c(N)c1Cl)C(=O)OCc1cnccn1 (centres unmarked) [Compound 121] | 5 (Level 5: the growth inhibition rate is greater than 85%) | 5 (Level 5: the growth inhibition rate is greater than 85%) | 5 (Level 5: the growth inhibition rate is greater than 85%) | 5 (Level 5: the growth inhibition rate is greater than 85%) | 5 (Level 5: the growth inhibition rate is greater than 85%)
7 | CC(Oc1nc(F)c(Cl)c(N)c1Cl)C(=O)OCc1cccnn1 (centres unmarked) [Compound 122] | 5 (Level 5: the growth inhibition rate is greater than 85%) | 5 (Level 5: the growth inhibition rate is greater than 85%) | 5 (Level 5: the growth inhibition rate is greater than 85%) | 5 (Level 5: the growth inhibition rate is greater than 85%) | 5 (Level 5: the growth inhibition rate is greater than 85%)
8 | CC(Oc1nc(F)c(Cl)c(N)c1Cl)C(=O)SCc1ccnnc1 (centres unmarked) [Compound 123] | 5 (Level 5: the growth inhibition rate is greater than 85%) | 5 (Level 5: the growth inhibition rate is greater than 85%) | 5 (Level 5: the growth inhibition rate is greater than 85%) | 5 (Level 5: the growth inhibition rate is greater than 85%) | 5 (Level 5: the growth inhibition rate is greater than 85%)
9 | CC(Oc1nc(F)c(Cl)c(N)c1Cl)C(=O)OCc1cncnc1 (centres unmarked) [Compound 124] | 5 (Level 5: the growth inhibition rate is greater than 85%) | 5 (Level 5: the growth inhibition rate is greater than 85%) | 5 (Level 5: the growth inhibition rate is greater than 85%) | 5 (Level 5: the growth inhibition rate is greater than 85%) | 5 (Level 5: the growth inhibition rate is greater than 85%)
10 | CC(Oc1nc(F)c(Cl)c(N)c1Cl)C(=O)SCCc1ccncn1 (centres unmarked) [Compound 125] | 5 (Level 5: the growth inhibition rate is greater than 85%) | 5 (Level 5: the growth inhibition rate is greater than 85%) | 5 (Level 5: the growth inhibition rate is greater than 85%) | 5 (Level 5: the growth inhibition rate is greater than 85%) | 5 (Level 5: the growth inhibition rate is greater than 85%)
11 | CC(Oc1nc(F)c(Cl)c(N)c1Cl)C(=O)OCc1ncncn1 (centres unmarked) [Compound 126] | 5 (Level 5: the growth inhibition rate is greater than 85%) | 5 (Level 5: the growth inhibition rate is greater than 85%) | 5 (Level 5: the growth inhibition rate is greater than 85%) | 5 (Level 5: the growth inhibition rate is greater than 85%) | 5 (Level 5: the growth inhibition rate is greater than 85%)
12 | Cc1cc(COC(=O)C(C)Oc2nc(F)c(Cl)c(N)c2Cl)n(C)n1 (centres unmarked) [Compound 127] | 5 (Level 5: the growth inhibition rate is greater than 85%) | 5 (Level 5: the growth inhibition rate is greater than 85%) | 5 (Level 5: the growth inhibition rate is greater than 85%) | 5 (Level 5: the growth inhibition rate is greater than 85%) | 5 (Level 5: the growth inhibition rate is greater than 85%)
13 | CC(Oc1nc(F)c(Cl)c(N)c1Cl)C(=O)OCc1cn(C)cn1 (centres unmarked) [Compound 129] | 5 (Level 5: the growth inhibition rate is greater than 85%) | 5 (Level 5: the growth inhibition rate is greater than 85%) | 5 (Level 5: the growth inhibition rate is greater than 85%) | 5 (Level 5: the growth inhibition rate is greater than 85%) | 5 (Level 5: the growth inhibition rate is greater than 85%)
